Activity calls are given as the source filed them.
Assays:
Cytochrome P450 2C9 = Cytochrome P450 2C9 (Homo sapiens, UniProt P11712); conditions: Potency
Cytochrome P450 2D6 [1] = biological target: T1, Cytochrome P450 2D6 (Homo sapiens, UniProt P10635); assay: qHTS Assay for Inhibitors and Substrates of Cytochrome P450 2D6. [Related pubchem assays: 410 ]; assay type: ADME; conditions: read-out: Potency
[2] = potency of ADAM10 substrate cleavage blockers – biochemical, QFRET, dose response (AID 743254);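 also: ADAM10 enzyme with the DM2 quenched FRET peptide as substrate; EDANS fluorescence gain as the protease cuts the substrate; inhibitor potency against ADAM10 proteolytic activity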
Estrogen receptor = biological target: T2, Estrogen receptor (Homo sapiens, UniProt P03372);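 also: potency for inhibiting coactivator peptide recruitment to the receptor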
T2 sequence (P03372 whole entry): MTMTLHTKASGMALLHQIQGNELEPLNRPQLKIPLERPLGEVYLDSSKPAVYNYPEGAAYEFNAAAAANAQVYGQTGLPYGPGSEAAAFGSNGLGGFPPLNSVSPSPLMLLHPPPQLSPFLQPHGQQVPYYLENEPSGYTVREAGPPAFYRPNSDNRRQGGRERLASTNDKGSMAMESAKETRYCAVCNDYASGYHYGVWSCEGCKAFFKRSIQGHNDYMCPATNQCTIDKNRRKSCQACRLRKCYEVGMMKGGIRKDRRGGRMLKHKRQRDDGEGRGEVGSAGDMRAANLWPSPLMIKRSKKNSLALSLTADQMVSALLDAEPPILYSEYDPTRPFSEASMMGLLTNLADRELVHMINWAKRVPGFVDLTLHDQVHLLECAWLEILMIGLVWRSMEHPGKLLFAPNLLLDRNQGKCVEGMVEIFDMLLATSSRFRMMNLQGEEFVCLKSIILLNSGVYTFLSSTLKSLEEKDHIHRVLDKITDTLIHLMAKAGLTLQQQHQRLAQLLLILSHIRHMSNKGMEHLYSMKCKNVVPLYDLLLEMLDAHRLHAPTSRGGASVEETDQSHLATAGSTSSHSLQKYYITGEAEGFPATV

[3] = off-target signal loss in HeLa-CEM21 co-culture – HeLa F-luc CTL cells, cherry-picked, counter-screen for HIV-1 Env fusion inhibitor project, dose response (AID 652040); assay type: functional, cell-based;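 also: potency for signal decrease marking cytotoxic or nonspecific inhibition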
[4] = blockers of HIV-1 envelope-mediated cell-cell fusion – cherry-pick, dose response (AID 652057); assay type: functional, cell-based
[5] = HIV-1 AD8 envelope cell-cell fusion blockers – cherry-pick, dose response (AID 652062); assay type: functional, cell-based;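 also: luciferase signal from cell-cell fusion driven by HIV-1 clade B AD8 Env; potency is for inhibitors of fusion seen as a drop in luminescence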
[6] = blockers of HIV-1 ZM109 envelope-driven cell-cell fusion – HeLa effector, CEM target cells, luciferase, cherry-pick, dose response (AID 652058); assay type: functional, cell-based;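 also: luciferase signal from HIV-1 Env mediated cell-cell fusion of effector and target cells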
[7] = blockers of bursicon-stimulated LGR2 cAMP reporter – cell-based, HEK293, CRE-luciferase reporter, cherry pick, set 2, dose response (AID 743343); assay type: functional;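 also: transfected cells were stimulated with diluted bursicon conditioned medium after compound addition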
[8] = blockade of melanocortin 4 receptor signaling – cell-based, plate reader, cherry pick, counter-screen for LGR2 antagonist project, dose response (AID 743444); assay type: functional;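 also: transfected HEK 293 cells stimulated with alpha-MSH peptide; potency of inhibitors of the alpha-MSH evoked signal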
[9] = A549 cell cytotoxicity, dose response, cytotoxicity control, plate reader, cherry-pick, antagonist series (AID 743412); assay type: functional, cell-based
Protein skinhead-1 = biological target: T3, Protein skinhead-1 (Caenorhabditis elegans, UniProt P34707); assay type: functional
T3 sequence (P34707 whole entry): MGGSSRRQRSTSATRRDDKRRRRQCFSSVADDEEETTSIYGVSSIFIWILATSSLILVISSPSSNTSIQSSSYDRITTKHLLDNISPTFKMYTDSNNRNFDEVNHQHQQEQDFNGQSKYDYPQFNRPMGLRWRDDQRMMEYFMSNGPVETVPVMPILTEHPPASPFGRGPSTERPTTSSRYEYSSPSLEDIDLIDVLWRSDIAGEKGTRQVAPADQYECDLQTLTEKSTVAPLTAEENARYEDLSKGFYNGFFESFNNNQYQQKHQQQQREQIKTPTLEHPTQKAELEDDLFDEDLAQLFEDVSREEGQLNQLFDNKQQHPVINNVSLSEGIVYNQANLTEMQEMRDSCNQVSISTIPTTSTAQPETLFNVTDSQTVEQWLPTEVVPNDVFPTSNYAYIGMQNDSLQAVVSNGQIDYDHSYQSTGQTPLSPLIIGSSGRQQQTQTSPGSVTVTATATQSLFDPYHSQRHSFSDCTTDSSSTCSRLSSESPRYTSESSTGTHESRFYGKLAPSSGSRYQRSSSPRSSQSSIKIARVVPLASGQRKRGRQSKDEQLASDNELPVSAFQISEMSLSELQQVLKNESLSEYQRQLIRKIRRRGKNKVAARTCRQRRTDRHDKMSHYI

[10] = viability loss in HEK293 cells – cell-based, plate reader, cherry-picked samples, cytotoxicity control, dose response (AID 743446); assay type: functional
[11] = biological target: Disintegrin and metalloproteinase domain-containing protein 17 (Homo sapiens, UniProt P78536); assay: inhibition of ADAM17 substrate cleavage – biochemical, quenched FRET substrate, counter-screen for ADAM10 exosite inhibitor project, dose response (AID 743253)
Disintegrin and metalloproteinase domain-containing protein 17, sequence (P78536 whole entry, the tested form may be a part): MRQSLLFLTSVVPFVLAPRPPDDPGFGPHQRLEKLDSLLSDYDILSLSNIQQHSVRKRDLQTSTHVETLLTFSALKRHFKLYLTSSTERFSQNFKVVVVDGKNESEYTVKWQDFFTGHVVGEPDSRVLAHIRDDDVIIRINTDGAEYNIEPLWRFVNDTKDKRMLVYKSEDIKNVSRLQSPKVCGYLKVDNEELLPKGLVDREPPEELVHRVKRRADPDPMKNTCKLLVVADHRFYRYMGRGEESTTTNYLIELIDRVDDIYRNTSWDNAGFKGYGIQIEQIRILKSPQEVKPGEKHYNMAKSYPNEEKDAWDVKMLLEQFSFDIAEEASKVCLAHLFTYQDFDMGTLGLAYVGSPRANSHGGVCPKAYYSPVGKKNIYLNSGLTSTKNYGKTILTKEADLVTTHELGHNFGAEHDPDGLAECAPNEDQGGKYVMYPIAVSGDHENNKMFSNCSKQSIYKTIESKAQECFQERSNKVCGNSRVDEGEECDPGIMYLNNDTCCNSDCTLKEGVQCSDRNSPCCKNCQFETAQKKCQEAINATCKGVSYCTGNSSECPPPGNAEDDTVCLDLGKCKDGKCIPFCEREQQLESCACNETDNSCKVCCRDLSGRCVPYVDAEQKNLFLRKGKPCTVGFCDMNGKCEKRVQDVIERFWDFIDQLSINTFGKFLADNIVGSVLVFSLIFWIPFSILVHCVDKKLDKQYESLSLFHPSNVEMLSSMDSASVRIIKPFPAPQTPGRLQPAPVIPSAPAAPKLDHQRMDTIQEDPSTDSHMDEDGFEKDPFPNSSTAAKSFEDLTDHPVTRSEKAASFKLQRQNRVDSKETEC

Cytochrome P450 3A4 = Cytochrome P450 3A4 (Homo sapiens, UniProt P08684);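 also: CYP3A4 tested as one member of a cytochrome P450 panel screen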
Cytochrome P450 3A4, sequence (P08684 whole entry): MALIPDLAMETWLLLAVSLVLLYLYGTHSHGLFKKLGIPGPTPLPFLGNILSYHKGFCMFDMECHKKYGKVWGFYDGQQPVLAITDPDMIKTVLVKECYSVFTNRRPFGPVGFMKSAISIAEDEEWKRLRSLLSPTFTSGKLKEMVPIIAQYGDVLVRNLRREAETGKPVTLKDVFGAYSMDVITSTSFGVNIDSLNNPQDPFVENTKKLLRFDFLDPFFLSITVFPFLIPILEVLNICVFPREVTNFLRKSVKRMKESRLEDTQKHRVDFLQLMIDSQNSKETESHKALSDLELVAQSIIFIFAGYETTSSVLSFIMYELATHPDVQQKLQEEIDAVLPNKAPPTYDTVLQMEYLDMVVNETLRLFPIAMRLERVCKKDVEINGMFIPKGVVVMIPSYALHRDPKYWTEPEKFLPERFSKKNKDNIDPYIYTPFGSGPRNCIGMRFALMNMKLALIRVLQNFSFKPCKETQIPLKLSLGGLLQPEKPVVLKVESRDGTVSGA

Cytochrome P450 2D6 [12] = biological target: T1, Cytochrome P450 2D6
[13] = biological target: T4, Mannose-6-phosphate isomerase (Homo sapiens, UniProt P34949); assay: MPI inhibition at elevated mannose 6-phosphate – biochemical, fluorescence intensity, high mannose 6-phosphate, primary screen (AID 1220)
T4 sequence (P34949 whole entry): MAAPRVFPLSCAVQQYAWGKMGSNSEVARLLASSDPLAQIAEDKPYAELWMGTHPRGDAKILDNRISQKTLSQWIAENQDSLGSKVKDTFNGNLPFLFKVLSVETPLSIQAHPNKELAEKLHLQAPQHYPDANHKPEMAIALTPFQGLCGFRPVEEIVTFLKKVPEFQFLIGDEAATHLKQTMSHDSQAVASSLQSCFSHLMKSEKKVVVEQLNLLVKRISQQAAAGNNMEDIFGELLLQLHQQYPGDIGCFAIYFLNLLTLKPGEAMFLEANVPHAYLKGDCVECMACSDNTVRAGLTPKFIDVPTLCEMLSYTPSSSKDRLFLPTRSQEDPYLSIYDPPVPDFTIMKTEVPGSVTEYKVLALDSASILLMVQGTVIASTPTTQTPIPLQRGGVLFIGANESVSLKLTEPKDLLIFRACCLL

[14] = biological target: G-protein coupled receptor 55 (Homo sapiens, UniProt Q9Y2T6); assay: selective activators of receptor GPR55 – imaging, U2OS cells, beta-arrestin-GFP redistribution, primary screen (AID 1961); assay type: functional
G-protein coupled receptor 55, sequence (Q9Y2T6 whole entry): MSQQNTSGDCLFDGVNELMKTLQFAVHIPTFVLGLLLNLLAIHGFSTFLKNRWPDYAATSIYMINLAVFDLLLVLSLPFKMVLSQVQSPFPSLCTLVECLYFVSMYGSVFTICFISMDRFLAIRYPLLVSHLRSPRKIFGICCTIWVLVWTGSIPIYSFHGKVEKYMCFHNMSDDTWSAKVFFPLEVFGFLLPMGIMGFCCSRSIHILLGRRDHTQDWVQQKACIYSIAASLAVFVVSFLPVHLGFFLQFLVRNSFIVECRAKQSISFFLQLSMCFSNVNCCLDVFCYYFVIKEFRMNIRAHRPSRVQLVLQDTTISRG

[15] = biological target: T5, Tyrosine-protein phosphatase non-receptor type 7 (Homo sapiens, UniProt P35236); assay: redox-active compounds inhibiting HePTP phosphatase – biochemical, fluorescence, mechanism study (AID 2068); assay type: functional
T5 sequence (P35236 whole entry): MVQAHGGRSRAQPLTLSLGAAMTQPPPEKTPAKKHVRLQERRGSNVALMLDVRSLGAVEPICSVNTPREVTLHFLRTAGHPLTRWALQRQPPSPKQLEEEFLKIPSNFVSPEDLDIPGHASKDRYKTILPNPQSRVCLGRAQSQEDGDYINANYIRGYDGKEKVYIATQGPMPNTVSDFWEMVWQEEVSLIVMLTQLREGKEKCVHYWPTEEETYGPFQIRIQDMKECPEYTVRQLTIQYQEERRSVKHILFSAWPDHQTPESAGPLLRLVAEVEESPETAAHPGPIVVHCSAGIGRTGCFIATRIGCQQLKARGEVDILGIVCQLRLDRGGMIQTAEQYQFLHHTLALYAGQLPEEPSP

[16] = biological target: T6, Dual specificity protein phosphatase 6 (Rattus norvegicus, UniProt Q64346); assay type: functional;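 also: confirmatory in vitro dose-response testing of MKP-3 inhibition; recombinant His-tagged MKP-3 made in E. coli BL21 with OMFP substrate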
T6 sequence (Q64346 whole entry): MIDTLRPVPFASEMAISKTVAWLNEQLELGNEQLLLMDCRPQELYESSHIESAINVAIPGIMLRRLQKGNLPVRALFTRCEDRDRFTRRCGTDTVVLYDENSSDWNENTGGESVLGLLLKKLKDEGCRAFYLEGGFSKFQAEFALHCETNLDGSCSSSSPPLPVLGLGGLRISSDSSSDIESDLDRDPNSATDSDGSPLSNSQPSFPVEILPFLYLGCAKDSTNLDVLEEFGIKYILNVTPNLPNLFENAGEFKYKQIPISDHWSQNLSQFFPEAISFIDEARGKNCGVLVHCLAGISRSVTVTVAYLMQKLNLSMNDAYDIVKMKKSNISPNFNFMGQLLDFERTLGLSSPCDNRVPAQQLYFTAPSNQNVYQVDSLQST

[17] = intracellular Trypanosoma cruzi inhibitors in host cells – cell-based, plate reader, cherry-pick samples, set 3, dose response (AID 651818); assay type: functional;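 also: compounds incubated with infected cells for about four days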
[18] = Dd2 parasite growth inhibition in erythrocytes – SYBR Green, dry powder samples, set 9, dose response (AID 1159568); assay type: functional, cell-based
[19] = activation of miR-122 Renilla sensor silencing – cell-based, Huh7 psiCHECK-miR122, Renilla luciferase, cherry-picked, dose response (AID 651956); assay type: functional;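 also: huh7 hepatoma cells stably carrying a psiCHECK-2 miR-122 sensor plasmid; renilla luciferase signal reporting endogenous miR-122 activity after 48 h compound exposure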

Cytochrome P450 2C9, sequence (P11712 whole entry): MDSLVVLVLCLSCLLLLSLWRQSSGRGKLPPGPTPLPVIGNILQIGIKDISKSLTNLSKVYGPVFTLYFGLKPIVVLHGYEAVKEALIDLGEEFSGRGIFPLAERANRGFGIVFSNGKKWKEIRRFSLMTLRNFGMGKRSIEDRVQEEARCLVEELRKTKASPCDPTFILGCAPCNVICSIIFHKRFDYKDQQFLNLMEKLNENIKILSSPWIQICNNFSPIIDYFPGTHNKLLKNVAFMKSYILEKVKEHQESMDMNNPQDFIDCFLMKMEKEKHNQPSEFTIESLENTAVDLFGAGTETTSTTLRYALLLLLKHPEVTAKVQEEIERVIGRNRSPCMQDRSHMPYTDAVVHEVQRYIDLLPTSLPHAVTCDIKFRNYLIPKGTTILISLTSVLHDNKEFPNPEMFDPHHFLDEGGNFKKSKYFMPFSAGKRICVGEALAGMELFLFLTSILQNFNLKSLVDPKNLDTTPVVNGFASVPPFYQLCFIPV
T1 sequence (P10635 whole entry): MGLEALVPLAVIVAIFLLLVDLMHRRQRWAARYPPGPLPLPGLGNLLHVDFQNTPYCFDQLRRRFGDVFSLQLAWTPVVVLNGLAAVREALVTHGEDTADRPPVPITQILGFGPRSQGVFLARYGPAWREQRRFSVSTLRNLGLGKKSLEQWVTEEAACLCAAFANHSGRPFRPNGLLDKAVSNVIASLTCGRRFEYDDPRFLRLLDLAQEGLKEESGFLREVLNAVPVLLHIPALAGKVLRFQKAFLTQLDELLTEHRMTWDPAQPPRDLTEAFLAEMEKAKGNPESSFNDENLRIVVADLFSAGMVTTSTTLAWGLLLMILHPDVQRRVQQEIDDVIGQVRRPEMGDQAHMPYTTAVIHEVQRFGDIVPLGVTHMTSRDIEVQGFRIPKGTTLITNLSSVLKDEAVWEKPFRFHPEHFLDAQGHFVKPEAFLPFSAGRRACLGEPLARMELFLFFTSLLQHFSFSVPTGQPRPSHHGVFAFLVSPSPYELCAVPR

NCCC[C@@H](CC(=O)N[C@@H]1CCNC[C@H]1C(=O)N[C@H](CC(=O)N[C@@H](CCC(=O)O)CC(=O)O)Cc1c[nH]c2ccccc12)NC(=O)C[C@H](Cc1c[nH]c2ccccc12)NC(=O)[C@@H]1CNCC[C@H]1N
AC50 (Cytochrome P450 2C9): 31.6 µM (inconclusive)
AC50 (Cytochrome P450 2D6 [1]): 39.8 µM (inconclusive)

CC(C)(C)c1ccc(-c2cc(-c3ccccc3O)[nH]n2)cc1
IC50 [2]: 14.9 µM (inactive)

Cc1ccc2c(c1)N(CC(=O)NC1CCCc3ccccc31)C(=O)CO2 (stereo not given)
IC50 (Estrogen receptor): > 50 µM (not active)

CC(C)C[C@@H](CC(=O)N[C@@H](CCC(=O)O)CC(=O)O)NC(=O)[C@@H]1CNCC[C@H]1NC(=O)C[C@@H](NC(=O)C[C@H](CO)NC(=O)[C@@H]1CNCC[C@H]1N)C(C)C
AC50 (Cytochrome P450 2C9): 6.31 µM (inconclusive)

Cc1cc(C)c(S(=O)(=O)N2CCN=C2c2ccccc2)cc1C
AC50 [3]: 10.1 µM (active)
AC50 [4]: 5.08 µM (active)
AC50 [5]: 7.94 µM (active)
AC50 [6]: 7.73 µM (active)

CCc1ccc2oc(-c3ccc(N)cc3)nc2c1
AC50 [7]: 7.42 µM (active)
AC50 [8]: 4.19 µM (active)
AC50 [9]: > 52 µM (inactive)
IC50 (Protein skinhead-1): 46.2 µM (active)
AC50 [10]: > 52 µM (inactive)

C=C(C)COc1ccc(-c2[nH]nc(C)c2Oc2ccccc2OC)c(O)c1
IC50 [2]: 8.72 µM (active)

C=C(C)COc1ccc(-c2n[nH]c(C)c2Oc2ccccc2OC)c(O)c1
IC50 [11]: > 69.5 µM (inactive)

CCOCCCNC(=O)c1cnc2ccc(S(=O)(=O)Nc3cccc(OC)c3)cc2c1O
IC50 (Estrogen receptor): 35.2 µM (not active)

O=[N+]([O-])c1ccc2c(c1NC1CCCCC1)=NC1(CCCCC1)[N+]=2[O-]
AC50 (Cytochrome P450 3A4): 3.16 µM (inconclusive)
AC50 (Cytochrome P450 2D6 [12]): 14.1 µM (inconclusive)
IC50 [13]: > 50 µM (not active)

CC(=O)O[C@@H]1CC[C@]2(C)[C@H]3CC[C@]4(C)[C@H](C[C@H]5CCCC[C@@]54C(C)=O)[C@@H]3CC(=O)[C@@]2(O)C1
AC50 (Cytochrome P450 2C9): 25.1 µM (inconclusive)

COCc1nnc(NC(=O)CCSc2ccccc2)s1
EC50 [14]: > 32 µM (inactive)

COc1ccc(/C=C2\Sc3ccc(C(=O)NC4CC4)cc3N(C)C2=O)cc1OC
EC50 [14]: > 32 µM (inactive)

Cc1ccccc1NC(=S)Nc1cccc2cnccc12
IC50 [13]: > 50 µM (not active)

O=C(NCCC1=CCCCC1)Nc1ccc2nc(-c3ccco3)c(-c3ccco3)nc2c1
IC50 [15]: 2.73 µM (active)

CC[C@@]12C(=O)N(c3cccc(F)c3)C(=O)N1[C@H](c1ccc(Cl)cc1)[C@@H]1C(=O)N(C3CCCCC3)C(=O)[C@@H]12
AC50 [3]: 0.416 µM (active)
AC50 [4]: < 0.26 µM (active)
AC50 [5]: 0.329 µM (active)
AC50 [6]: < 0.26 µM (active)

C[C@@]12C(=O)N(c3cccc(Cl)c3)C(=O)N1[C@H](c1ccc(Cl)cc1)[C@@H]1C(=O)N(C3CCCCC3)C(=O)[C@@H]12
AC50 [3]: 2.26 µM (active)
AC50 [4]: 1.21 µM (active)
AC50 [5]: 11.6 µM (active)
AC50 [6]: 1.31 µM (active)

COc1cc(C(=S)NCc2ccc(O)cc2)ccc1O
IC50 [15]: 10.1 µM (active)
IC50 [16]: > 100 µM (inactive)

COc1cc(C(=S)NCc2ccc(C)cc2C)ccc1O
IC50 [15]: 1.64 µM (active)
IC50 [16]: > 100 µM (inactive)

C[C@H](CO)N1C[C@H](C)[C@H](CN(C)C(=O)Nc2ccc(C(F)(F)F)cc2)Oc2c(NC(=O)c3ccc(-c4nccs4)cc3)cccc2C1=O
AC50 [17]: 4.22 µM (active)
AC50 [18]: 5 µM (active)

C[C@H](CO)N1C[C@H](C)[C@H](CN(C)C(=O)NC2CCCCC2)Oc2ncc(-c3cccc(C(F)(F)F)c3)cc2C1=O
AC50 [19]: 37.8 µM (active)

CN(C)c1ccc(-c2nc3cc(N)ccc3o2)cc1
AC50 [7]: 2.28 µM (active)
AC50 [8]: 3.58 µM (active)
AC50 [10]: > 52 µM (inactive)

N#Cc1cccc(-c2ccc([C@@H]3[C@@H]4CN(C(=O)c5ccccn5)C[C@H]3N4)cc2)c1
AC50 [7]: 11.1 µM (active)
AC50 [8]: 13.2 µM (active)
AC50 [9]: 15 µM (active)
AC50 [10]: > 52 µM (inactive)

O=C(N/N=C/c1cn(-c2cccs2)nc1-c1ccccc1)c1ccccc1Cl
IC50 [11]: > 69.5 µM (inactive)
IC50 [2]: > 69.5 µM (inactive)

CC(C)[C@H]1COCn2nncc2CCCC(=O)N1
AC50 [18]: > 39 µM (inactive)

Source: ChEMBL document CHEMBL1201862, “PubChem BioAssay data set” (2004)
